Laboratory results taken from patent US20230339915A1 (Vertex Pharmaceuticals Incorporated, priority 2020, published 2023).

Tests used:
[1] = target: NL20 human bronchial epithelial cells expressing human Z-AAT (Homo sapiens (Human), UniProt P01009, E366K); assay: AAT Function Assay (MSD Assay NL20-SI Cell Line); type: cell-based; details: functionally active AAT (AAT-hNE complex, MSD) in supernatant of NL20 cells expressing human Z-AAT; read-out: NL20 Functional EC50
How it was run: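 Secreted active Z-AAT was measured by MSD electrochemiluminescence: supernatants (45-fold total dilution) were incubated with human neutrophil elastase to form AAT–elastase complexes, captured by goat anti-AAT and detected with labelled anti-elastase. Cells were doxycycline-induced (0.1 μM) NL20 bronchial cells treated with compound overnight; M-AAT standard curve.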

[2] = target: purified Z-AAT protein from human plasma (Homo sapiens (Human), UniProt P01009, E366K); assay: Biochemical Assay (Z-AAT Elastase Activity Assay); details: purified Z-AAT pre-incubated with compound 1 hour, then human neutrophil elastase and fluorescent substrate
How it was run: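 Purified plasma Z-AAT (20 nM) preincubated with compounds 1 h at room temperature, then 3 nM human neutrophil elastase added in PBS + 0.01% BRIJ35 for 30 min to form suicide complex. Residual elastase activity read immediately by fluorescence after adding 300 μM MeOSuc-AAPV-AMC substrate solution.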

Chain of purified Z-AAT protein from human plasma (P01009 25-418 E366K limits assumed): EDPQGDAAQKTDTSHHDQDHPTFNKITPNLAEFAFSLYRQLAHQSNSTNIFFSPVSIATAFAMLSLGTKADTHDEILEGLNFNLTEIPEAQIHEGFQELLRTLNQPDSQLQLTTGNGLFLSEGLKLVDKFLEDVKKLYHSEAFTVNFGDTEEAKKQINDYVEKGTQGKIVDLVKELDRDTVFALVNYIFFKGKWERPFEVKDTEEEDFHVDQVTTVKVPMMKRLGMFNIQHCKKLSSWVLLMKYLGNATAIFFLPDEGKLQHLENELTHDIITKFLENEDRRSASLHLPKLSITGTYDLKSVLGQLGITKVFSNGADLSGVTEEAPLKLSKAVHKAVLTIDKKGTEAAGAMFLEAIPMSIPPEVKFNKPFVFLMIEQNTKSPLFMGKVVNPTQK
Chain of NL20 human bronchial epithelial cells expressing human Z-AAT (P01009 25-418 E366K limits assumed): as above

Row | EC50 [1] [µM] | IC50 [2] [µM] | Compound
1 | 0.5 to 2 | > 30 | Cc1cc(-n2c(C#N)c(-c3ccc(C(=O)O)cc3)c3cc(O)ccc32)ccc1F [Compound 175]
2 | 0.5 to 2 | > 5 | CC(C)c1c([C@H]2C[C@H](C(=O)O)C2)c2cc(O)ccc2n1-c1ccc(F)c(F)c1 [Compound 141, trans-3-(1-(3,4-difluorophenyl)-5-hydroxy-2-isopropyl-1H-indol-3-yl)cyclobutane-1-carboxylic acid]
3 | 0.5 to 2 | > 5 | CC(C)c1c([C@H]2C[C@H](C(=O)O)C2)c2cc(O)ccc2n1-c1ccc(F)c(Cl)c1 [Compound 77]
4 | > 2 | > 30 | Cc1cc(-n2c(C)c(C#N)c3cc(O)cc(C)c32)ccc1F [Compound 208, 1-(4-fluoro-3-methylphenyl)-5-hydroxy-2,7-dimethyl-1H-indole-3-carbonitrile]
5 | > 2 | > 30 | Cc1cc(-n2c(C3CCOCC3)c([C@H]3C[C@H](C(=O)O)C3)c3cc(O)ccc32)ccc1F [Compound 20]
6 | 0.5 to 2 | > 30 | Cc1cc(-n2c(C3CCOCC3)c(C3CCCC(C(=O)O)C3)c3cc(O)ccc32)ccc1F (stereo not drawn) [Compound 3]
7 | > 2 | > 30 | CC(C)c1c([C@H]2C[C@@](C)(C(=O)O)C2)c2cc(O)ccc2n1-c1ccc(F)c(Cl)c1 [Compound 76]
8 | > 2 | > 30 | Cc1cc(-n2c(C(C)C)c([C@H]3C[C@@](C)(C(=O)O)C3)c3cc(O)ccc32)ccc1F [Compound 94]
9 | > 2 | > 30 | Cc1cc(-n2c(C3CCOCC3)c([C@H]3C[C@@H](c4noc(=O)[nH]4)C3)c3cc(O)ccc32)ccc1F [Compound 224, cis-3-[3-[1-(4-fluoro-3-methyl-phenyl)-5-hydroxy-2-tetrahydropyran-4-yl-indol-3-yl]cyclobutyl]-4H-1,2,4-oxadiazol-5-one]
10 | 0.5 to 2 | > 5 | Cc1cc(-n2c(C(C)C)c([C@H]3C[C@@H]3C(=O)O)c3cc(O)ccc32)ccc1F [Compound 134]
11 | 0.5 to 2 | > 5 | Cc1cc(-n2c(C3CCOCC3)c([C@H]3C[C@@](C(=O)O)(C(F)(F)F)C3)c3cc(O)ccc32)ccc1F [Compound 9]
12 | > 2 | > 30 | Cc1cc(-n2c([C@H]3CCOC3)c([C@H]3C[C@H](C(=O)O)C3)c3cc(O)ccc32)ccc1F [Compound 86]
13 | > 2 | > 30 | O=C(O)[C@H]1C[C@H](c2c(C3CCOCC3)n(-c3cc(F)cc(F)c3)c3ccc(O)cc32)C1 [Compound 112]
14 | > 2 | > 30 | O=C(O)[C@H]1CC[C@@H](c2c(C3CCOCC3)n(-c3ccc(F)c(F)c3)c3ccc(O)cc32)CC1 [Compound 138]
15 | > 2 | > 5 | Cc1cc(-n2c(C(C)C)c(/C=C/C(=O)O)c3cc(O)c(F)cc32)ccc1F [Compound 181, (E)-3-(6-fluoro-1-(4-fluoro-3-methylphenyl)-5-hydroxy-2-isopropyl-1H-indol-3-yl)acrylic acid]
16 | > 2 | > 30 | CS(N)(=O)=Cc1c(C#N)c2cc(O)ccc2n1-c1ccc(F)cc1 (stereo not drawn) [Compound 206, 1-(3-cyano-1-(4-fluorophenyl)-5-hydroxy-1H-indol-2-yl)-S-methylmethanesulfinamide]
17 | > 2 | > 30 | Cc1cc(-n2c(C3CCOCC3)c([C@H]3C[C@@](C)(C(=O)O)C3)c3cc(O)ccc32)ccc1F [Compound 100]

Row | EC50 [1] [µM] | IC50 [2] [µM] | Compound
18 | 0.5 to 2 | > 5 | Cc1cc(-n2c(C(C)C)c([C@H]3C[C@@H](C(=O)O)C3)c3c(F)c(O)ccc32)ccc1F [Compound 90]
19 | > 2 | > 30 | Cc1cc(-n2c(C)c(CC(=O)O)c3cc(O)ccc32)ccn1 [Compound 161]
20 | > 2 | > 30 | N#Cc1c(C2CCOCC2)n(-c2ccccc2)c2ccc(O)cc12 [Compound 202]
21 | 0.5 to 2 | > 30 | Cc1cc(-n2c(C(C)C)c(CCC(C)(C)C(=O)O)c3cc(O)ccc32)ccc1F [Compound 62]
22 | > 2 | > 30 | CCc1c([C@H]2C[C@@H]2C(=O)O)c2cc(O)ccc2n1-c1ccc(F)c(C)c1 [Compound 127]
23 | < 0.5 | > 5 | O=C(O)[C@H]1CC2(C1)C[C@H](c1c(C3CCOCC3)n(-c3ccc(F)c(Cl)c3)c3ccc(O)cc31)C2 (stereo partly drawn) [Compound 33]
24 | 0.5 to 2 | > 5 | CC(C)c1c([C@H]2C[C@](C)(C(=O)O)C2)c2cc(O)ccc2n1-c1ccc(F)c(Cl)c1 [Compound 75]
25 | 0.5 to 2 | > 30 | O=C(O)[C@H]1CCC[C@@H](c2c(C3CCOCC3)n(-c3ccc(F)c(F)c3)c3ccc(O)cc23)C1 (relative stereo) [Compound 136, cis-3-(1-(3,4-difluorophenyl)-5-hydroxy-2-(tetrahydro-2H-pyran-4-yl)-1H-indol-3-yl)cyclohexane-1-carboxylic acid]
26 | 0.5 to 2 | < 2 | CC(C)(CC#N)c1c(-c2ccc(C(=O)O)cc2)c2cc(O)ccc2n1-c1ccc(F)cc1 [Compound 165, 4-(2-(1-cyano-2-methylpropan-2-yl)-1-(4-fluorophenyl)-5-hydroxy-1H-indol-3-yl)benzoic acid]
27 | 0.5 to 2 | > 5 | Cc1cc(-n2c(C(C)C)c([C@H]3C[C@](C(=O)O)(C(F)(F)F)C3)c3cc(O)ccc32)ccc1F [Compound 61]
28 | > 2 | > 30 | Cc1cc(-n2c(C3CCOCC3)c([C@H]3C[C@@H]3C(=O)O)c3cc(O)ccc32)ccc1F (relative stereo) [Compound 124, trans-2-[1-(4-fluoro-3-methyl-phenyl)-5-hydroxy-2-tetrahydropyran-4-yl-indol-3-yl]cyclopropanecarboxylic acid]
29 | 0.5 to 2 | > 30 | Cc1cc(-n2c(C(C)C)c(C#N)c3cc(O)c(F)cc32)ccc1F [Compound 193, 6-fluoro-1-(4-fluoro-3-methylphenyl)-5-hydroxy-2-isopropyl-1H-indole-3-carbonitrile]
30 | > 2 | > 30 | Cc1cc(-n2c(C3CCOCC3)c(C[C@H]3CC[C@H](C(=O)O)CC3)c3cc(O)ccc32)ccc1F [Compound 5]
31 | > 2 | > 30 | Cc1nccc(-n2c(C(C)C)c(-c3ccc(C(=O)O)cc3)c3cc(O)ccc32)n1 [Compound 174]
32 | > 2 | > 5 | Cc1cc(-n2c(C(C)C)c(CCC(F)(F)C(=O)O)c3cc(O)ccc32)ccc1F [Compound 59]
33 | > 2 | > 30 | Cc1cc(-n2c(C3CC3)c([C@H]3C[C@H](C(=O)O)C3)c3cc(O)ccc32)ccc1F [Compound 93]
